Several values for one entry are separate records, joined by “and”; a condition that tells them apart may be missing. Equal entries are not always repeated. Where two headings read alike, the source gives them in different places.
Experiments:
[1] = target: T1, hCK2α (Homo sapiens, UniProt P68400); parameters: method as in PMID 32162783; conditions: cited from earlier work
T1 construct: made in house

[2] = target: T1, hCK2α; parameters: method as in PMID 25891901; conditions: cited from earlier work
[3] = parameters: method as in PMID 22632480; conditions: pH 8.0; cited from earlier work
[4] = Density measurements: partial molar volume and thermal expansivity of the solute; assay type: physicochemical; conditions: 50 mM phosphate buffer pH 11; for α2^0, thermal volumetric expansivity of the solute: 20, 25, 30 °C; for V2^0, partial molar volume: 25 °C
Experimental: Partial molar volumes were estimated with a density meter Anton Paar DMA 5000 M at 20, 25, and 30 °C from the concentration–density dependency for compounds dissolved in 50 mM phosphate buffer (pH 11). The experimental procedure and the data analysis method were described previously.[36],[57],[58] The partial molar volume at 25 °C (V2^0) and thermal volumetric expansivity of the solute (α2^0 = ∂V2^0/∂T) were estimated globally from two independent dilution series. The density of pure solvent (d0) was extrapolated individually for each experimental condition (i.e., temperature and buffer preparation). The change of d0 with temperature was further used to determine thermal volumetric expansivity coefficient of the bulk buffer according to the formula α0 = −(∂d0/∂T)/d0.
According to the Lum, Chandler, and Weeks (LCW) theory, the hydrophobic interactions scale for solutes of subnanometer size with the volume of the molecule rather than its surface.[61] We have recently proposed partial molar volume as the extensive parameter to describe both the solute volume and the solute-induced reorganization of the solvation shell.[36],[57],[58],[62],[63] By analyzing density data at three temperatures (20, 25, and 30 °C), we could estimate the partial molar volume of the ligand (V2^0) and the bulk solvent density (d0(T)). We could further separate the thermal expansivity coefficient of the bulk solvent (α0) and the apparent expansivity of the solute (α2^0). The latter parameter is comprised mainly of the thermal expansion effect of the hydration shell. The values of α0 fell within the narrow range of (26.9 ± 1.3) × 10^–5 K^–1, which is close to the literature data for water (25.72 × 10^–5 K^–1 at 25 °C).[64] […] The solute thermal expansivity (α2^0), together with the change of isobaric heat capacity upon ligand binding (ΔCp,bind), has already been associated with the properties of the solvation layer.[65],[66] Importantly, α2^0 is proportional to the partial molar volume V2^0 (Figure 3D). So, V2^0 may be another descriptor of hydrophobic interactions. Consequently, the volume-normalized solute expansivity coefficient (α = α2^0/V2^0) is almost the same for all studied bromobenzotriazoles (232 ± 22 × 10^–5 K^–1). Importantly, this value substantially exceeds the thermal expansivity coefficient of the bulk buffer (α0 = 26.9 ± 1.3 × 10^–5 K^–1), clearly confirming that water organization changes with temperature more near the solute surface than in the bulk.

[5] = target: T1, hCK2α; parameters: method as in PMID 23155426; conditions: pH 7.5; cited from earlier work
[6] = target: T1, hCK2α; experiment: Isothermal titration calorimetry (NanoITC); assay type: binding; conditions: pH 8
Experimental: (§1) In all experiments the maximum ligand concentration of 10 μM was used to minimize a possible contribution of the secondary binding site.

[7] = target: T1, hCK2α; experiment: Isothermal titration calorimetry (MicroCal iTC200), reverse titration; assay type: binding; conditions: for ΔGbind, free energy of binding: ITC; for ΔSrt, entropic term for loss of ligand rotational and translational degrees of freedom: calculated from ligand molecular mass; for Ts, temperature at which the entropy change upon ligand binding is zero: estimated from the linear fit of ΔS(T); for ΔSHE(Ts), hydrophobic-effect contribution to the entropy change upon binding: ≈ 1.35∙ΔCp,bind∙ln(Ts/386)
Experimental: ITC measurements were carried out using the MicroCal iTC200 (Malvern) calorimeter. The hCK2α samples were diluted to the required protein concentration with the 25 mM Tris-HCl pH 8 buffer containing 0.5 M NaCl. Stock ligand solutions were diluted with the appropriate DMSO volume prior to mixing with the buffer to obtain the required ligand concentration and a final DMSO content of 1%. Due to the limited solubility of halogenated benzotriazoles, all titration experiments were performed in the reverse mode, in which buffered ligand solution was placed in the calorimetric cell and titrated with the protein solution.[35]
as §1

[8] = target: T1, hCK2α; experiment: Fluorescence-monitored thermal denaturation (nanoDSF) of hCK2α complexes; assay type: binding; conditions: protein 2.5 μM, ligand 25 μM; for Tm (°C) at pH 7.5: hCK2α in complex with ligand; for ΔTm (°C) at pH 7.5: unfolding temperature with ligand minus without
Experimental: The samples were loaded into nanoDSF grade Standard Capillaries (NanoTemper Technologies) and analyzed using the Prometheus NT.48 nanoDSF device (NanoTemper Technologies). Thermal unfolding of the protein was monitored using a linear thermal ramp (1 °C·min^–1; 20–80 °C) with an excitation power of 30%.
This prompted us to measure the thermal stabilities of hCK2α and its complexes at pH 7.5 by fluorescence-monitored thermal denaturation (nanoDSF) (Table 2).

[9] = parameters: method as in doi:10.1016/j.molliq.2019.111527; conditions: calculated water–octanol partition coefficient; cited from earlier work
[10] = parameters: method as in PMID 32162783; conditions: HPLC-derived hydrophobicity; cited from earlier work
[11] = target: T1, hCK2α; parameters: method as in earlier work; conditions: ref 6 (of the supplement); read-out: KATP, dissociation constant of ATP; cited from earlier work
[12] = iTC200, 20 °C, pH 8, independent experiments separately evaluated
[13] = iTC200, 25 °C, pH 8, independent experiments separately evaluated
[14] = iTC200, 30 °C, pH 8, independent experiments separately evaluated
[15] = iTC200, 35 °C, pH 8, independent experiments separately evaluated

T1 sequence (P68400 whole entry): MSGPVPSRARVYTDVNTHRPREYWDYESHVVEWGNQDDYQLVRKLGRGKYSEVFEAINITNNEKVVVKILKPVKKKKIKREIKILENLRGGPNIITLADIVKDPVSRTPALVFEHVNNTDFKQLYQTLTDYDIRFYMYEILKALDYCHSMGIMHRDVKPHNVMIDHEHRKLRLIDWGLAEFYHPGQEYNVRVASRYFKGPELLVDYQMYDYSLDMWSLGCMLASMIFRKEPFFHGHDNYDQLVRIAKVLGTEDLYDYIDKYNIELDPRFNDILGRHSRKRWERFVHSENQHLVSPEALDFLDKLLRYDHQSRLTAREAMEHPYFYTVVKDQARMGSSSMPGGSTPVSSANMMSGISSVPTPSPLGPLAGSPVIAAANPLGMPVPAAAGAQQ

Clc1c(Br)c(Br)c(Cl)c2[nH]nnc12 [5,6-Br2-4,7-Cl2Bt]
affinity to hCK2α among the four isomeric dibromo–dichlorobenzotriazoles [1]: highest affinity

Brc1cc2nn[nH]c2cc1Br [5,6-Br2Bt, 5,6-bromobenzotriazole]
ΔTm (°C) at pH 8 [2]: 7.4 ± 0.1 °C | fraction of the ligand that is neutral [3]: 0.08 | α2^0, thermal volumetric expansivity of the solute [4]: 0.33 ± 0.14 cm^3·mol^–1·K^–1 | V2^0, partial molar volume [4]: 150.0 ± 0.6 cm^3·mol^–1 | IC50 [5]: 0.56 ± 0.02 µM | Kd ([6]; 15 °C): 59 ± 49 nM | ΔG ([6]; 15 °C): -9.54 ± 0.478 kcal/mol | ΔH ([6]; 15 °C): -13.5 ± 1.12 kcal/mol | ΔS ([6]; 15 °C): -58 ± 18 J·mol-1·K-1 | Kd ([6]; 20 °C): 60 ± 54 nM | ΔG ([6]; 20 °C): -9.7 ± 0.526 kcal/mol | ΔH ([6]; 20 °C): -14.8 ± 1.34 kcal/mol | ΔS ([6]; 20 °C): -73 ± 21 J·mol-1·K-1 | Kd ([6]; 25 °C): 46 ± 26 nM | ΔG ([6]; 25 °C): -10 ± 0.335 kcal/mol | ΔH ([6]; 25 °C): -16.9 ± 0.765 kcal/mol | ΔS ([6]; 25 °C): -97 ± 12 J·mol-1·K-1 | Kd ([6]; 30 °C): 150 ± 120 nM | ΔG ([6]; 30 °C): -9.44 ± 0.454 kcal/mol | ΔH ([6]; 30 °C): -18.3 ± 0.693 kcal/mol | ΔS ([6]; 30 °C): -122 ± 11 J·mol-1·K-1 | Kd ([6]; 35 °C): 93 ± 49 nM | ΔG ([6]; 35 °C): -9.92 ± 0.311 kcal/mol | ΔH ([6]; 35 °C): -20.8 ± 1.86 kcal/mol | ΔS ([6]; 35 °C): -148 ± 26 J·mol-1·K-1 | ΔGbind, free energy of binding ([7]; 25 °C, pH 8): –40.9 ± 0.3 kJ·mol^–1 | ΔSrt, entropic term for loss of ligand rotational and translational degrees of freedom [7]: -291 J∙mol-1∙K-1 | Ts, temperature at which the entropy change upon ligand binding is zero [7]: 268 ± 42 K | Kd [7, 12]: 32 nM and 33 nM | Kd [7, 13]: 50 nM and 27 nM | Kd [7, 14]: 84 nM and 69 nM | Kd [7, 15]: 108 nM and 115 nM | ΔSHE(Ts), hydrophobic-effect contribution to the entropy change upon binding [7]: 291 ± 34 J∙mol-1∙K-1 | Tm (°C) at pH 7.5 [8]: 52.96 ± 0.05 °C | ΔTm (°C) at pH 7.5 [8]: 7.8 ± 0.1 °C | log P [9]: 2.36 | log(τ) [10]: –0.30

Brc1ccc2n[nH]nc2c1 [5-BrBt]
ΔTm (°C) at pH 8 [2]: 1.8 ± 0.1 °C | fraction of the ligand that is neutral [3]: 0.26 | α2^0, thermal volumetric expansivity of the solute [4]: 0.14 ± 0.20 cm^3·mol^–1·K^–1 | V2^0, partial molar volume [4]: 132.7 ± 0.8 cm^3·mol^–1 | IC50 [5]: 26 ± 3 µM | ΔGbind, free energy of binding ([7]; 25 °C, pH 8): –34.4 ± 0.6 kJ·mol^–1 | ΔSrt, entropic term for loss of ligand rotational and translational degrees of freedom [7]: -277 J∙mol-1∙K-1 | Ts, temperature at which the entropy change upon ligand binding is zero [7]: 281 ± 152 K | Kd ([7]; iTC200, 15 °C, pH 8, independent experiments separately evaluated): 880 nM and 490 nM | Kd [7, 12]: 730 nM and 550 nM | Kd [7, 13]: 930 ± 280 nM | ΔG [7, 13]: -8.22 ± 0.14 kcal/mol and -8.22 ± 0.359 kcal/mol | Kd [7, 14]: 1270 nM and 990 nM | Kd [7, 15]: 1330 nM and 1890 nM | ΔSother, entropy change assigned to all other processes accompanying ligand binding ([7]; ΔSrt + ΔSHE(Ts) + ΔSother = 0): 157 ± 56 J∙mol-1∙K-1 | ΔSHE(Ts), hydrophobic-effect contribution to the entropy change upon binding [7]: 120 ± 56 J∙mol-1∙K-1 | Tm (°C) at pH 7.5 [8]: 47.17 ± 0.02 °C | ΔTm (°C) at pH 7.5 [8]: 2.0 ± 0.1 °C | log P [9]: 1.73 | log(τ) [10]: –0.41

Nc1ncnc2c1ncn2[C@@H]1O[C@H](COP(=O)(O)OP(=O)(O)OP(=O)(O)O)[C@@H](O)[C@H]1O [ATP]
Kd [11]: 4300 ± 1800 nM
